Results from US20180161400A1 (Emisphere Technologies, Inc., priority 2004, published 2018).
Where “and” joins values, the source holds several entries; their conditions need not be identical. Identical values can stand only once. Counter-ions that a name gives are not always drawn.

Assays:
[1] = cited from earlier work
[2] = test system: people with Type 2 diabetes; details: cited from earlier work
[3] = cited from earlier work; remark: listed apart in the source
[4] = cited from earlier work; remark: listed apart in the source
[5] = test system: patients with impaired glucose tolerance; details: compared with placebo, over 2.8 years; cited from earlier work
[6] = test system: Sprague Dawley rats; test: Single oral gavage of insulin/4-CNAB/metformin solutions to fasted rats, blood glucose by hand-held glucometer; format: in vivo; details: for Percent Change in Glucose (from baseline), Mean / Blood Glucose, Mean: group mean n=5; for Percent Change in Glucose Compared to Carrier Alone, Mean: group mean; for Percent Change in Glucose Compared to Carrier Alone: individual rat vs vehicle group mean; for Percent Change in Glucose (from baseline) / Blood Glucose: individual rat
Description: These solutions were sonicated at 35° C. and the pH adjusted to 6.5-8.5 with sodium hydroxide.
Sprague Dawley rats were fasted overnight (16-24 h) and were divided into five groups for oral dosing (n=5 per group). Each rat received a single oral dose (by gavage) of dosing solution at a final dose volume of 1 mL/kg. […] The study also included a control group that received an oral dose of vehicle (water) alone. Blood samples were collected by the tail clip method at 0, 15, 30, 45, 60, 120, 180, 240 and 300 minutes and blood glucose was measured immediately using a hand-held glucometer.

[7] = test system: Type 2 diabetics; details: cited from earlier work
[8] = in vivo; cited from earlier work
[9] = 15 min, listed as Metformin (450)
[10] = 30 min, listed as Metformin (450)
[11] = 45 min, listed as Metformin (450)
[12] = 60 min, listed as Metformin (450)
[13] = 120 min, listed as Metformin (450)
[14] = 180 min, listed as Metformin (450)
[15] = 240 min, listed as Metformin (450)
[16] = 300 min, listed as Metformin (450)

**Q.** Which “pH of a 1% aqueous solution” value [1] does the source give for `CN(C)C(=N)N=C(N)N` [Metformin hydrochloride] here?
**A.** The value was 6.68.

**Q.** Which results are given for `CN(C)C(=N)N=C(N)N` [Metformin, 1,1-Dimethylbiguanidine]?
**A.** decrease in heart attacks ([2]; 10 year UKPDS, Type 2 diabetes): 39%; decrease in overall mortality ([2]; 10 year UKPDS, Type 2 diabetes): 36%; times less likely to cause lactic acidosis ([3]; compared with phenformin): 20 times; Lactic acidosis occurrence, once in every ... of use ([3]; in vivo): 30,000 person-years; mortality rate of lactic acidosis ([3]; in vivo): about 40%; non-absorbed fraction recovered in feces ([4]; after an oral dose): 20-30%; maximum metformin plasma levels (Cmax) ([4]; controlled clinical trials, even at maximum doses): ≤ 4000 ng/mL; steady state plasma concentrations ([4]; usual doses and dosing schedules): less than 1 μg/mL; reduction of the incidence of type 2 diabetes [5]: 31%; time of maximum decline in blood glucose ([6]; after oral administration): about 45 minutes; Percent Change in Glucose (from baseline), Mean ([6]; 0 min): 0.000%; Blood Glucose, Mean ([6]; 0 min (pre-dose baseline), label doses mg/kg oral): 99.000 mg/dL; Percent Change in Glucose (from baseline), Mean ([6]; 15 min): 2.053%; Blood Glucose, Mean ([6]; 15 min after single oral dose): 101.200 mg/dL; Percent Change in Glucose (from baseline), Mean ([6]; 30 min): −3.264%; Blood Glucose, Mean ([6]; 30 min after single oral dose): 95.600 mg/dL; Percent Change in Glucose (from baseline), Mean ([6]; 45 min): −13.716%; Blood Glucose, Mean ([6]; 45 min after single oral dose): 85.200 mg/dL; Percent Change in Glucose (from baseline), Mean ([6]; 60 min): −17.653%; Blood Glucose, Mean ([6]; 60 min after single oral dose): 81.200 mg/dL; Percent Change in Glucose (from baseline), Mean ([6]; 120 min): −35.050%; Blood Glucose, Mean ([6]; 120 min after single oral dose): 63.800 mg/dL; Percent Change in Glucose (from baseline), Mean ([6]; 180 min): −38.670%; Blood Glucose, Mean ([6]; 180 min after single oral dose): 60.400 mg/dL; Percent Change in Glucose (from baseline), Mean ([6]; 240 min): −40.832%; Blood Glucose, Mean ([6]; 240 min after single oral dose): 58.200 mg/dL; Percent Change in Glucose (from baseline), Mean ([6]; 300 min): −37.001%; Blood Glucose, Mean ([6]; 300 min after single oral dose): 62.400 mg/dL; maximum decline in blood glucose from baseline ([6]; group mean percent change at the peak time stated in the text): −40.832%; Percent Change in Glucose Compared to Carrier Alone, Mean ([6]; 0 min): 18.990%; Percent Change in Glucose Compared to Carrier Alone, Mean ([6]; 15 min): 4.521%; Percent Change in Glucose Compared to Carrier Alone, Mean ([6]; 30 min): 7.223%; Percent Change in Glucose Compared to Carrier Alone, Mean ([6]; 45 min): −0.770%; Percent Change in Glucose Compared to Carrier Alone, Mean ([6]; 60 min): 1.563%; Percent Change in Glucose Compared to Carrier Alone, Mean ([6]; 120 min): −4.797%; Percent Change in Glucose Compared to Carrier Alone, Mean ([6]; 180 min): −9.824%; Percent Change in Glucose Compared to Carrier Alone, Mean ([6]; 240 min): −12.757%; Percent Change in Glucose Compared to Carrier Alone, Mean ([6]; 300 min): −2.733%; Percent Change in Glucose Compared to Carrier Alone ([6]; 0 min, listed as Metformin (450)): 29.808% and 5.769% and 12.981% and 17.788% and 28.606%; Percent Change in Glucose Compared to Carrier Alone [6, 9]: −8.511% and 2.128% and 6.383% and 16.085%; Percent Change in Glucose Compared to Carrier Alone [6, 10]: −4.063% and 8.352% (2×) and 16.253%; Percent Change in Glucose Compared to Carrier Alone [6, 11]: −8.768% and 5.450% and −2.844% and 3.081%; Percent Change in Glucose Compared to Carrier Alone [6, 12]: −7.500% and 5.000% (2×) and 3.750%; Percent Change in Glucose Compared to Carrier Alone [6, 13]: −6.977% and 4.651% and −17.151% and 0.291%; Percent Change in Glucose Compared to Carrier Alone [6, 14]: −22.287% and −0.293% and −7.625% and −9.091%; Percent Change in Glucose Compared to Carrier Alone [6, 15]: −17.889% and −4.692% and −20.821% and −7.625%; Percent Change in Glucose Compared to Carrier Alone [6, 16]: −6.752% and 9.325% and −34.084% and 20.579%; Percent Change in Glucose (from baseline) ([6]; 0 min): 0.000%; Blood Glucose ([6]; 0 min (pre-dose baseline), label doses mg/kg oral, listed as Metformin (450)): 108 mg/dL and 88 mg/dL and 94 mg/dL and 98 mg/dL and 107 mg/dL; Percent Change in Glucose (from baseline) [6, 9]: 4.630% and −2.273% and 2.128% and 2.041% and 3.738%; Blood Glucose ([6]; 15 min after single oral dose, label doses mg/kg, listed as Metformin (450)): 113 mg/dL and 86 mg/dL and 96 mg/dL and 100 mg/dL and 111 mg/dL; Percent Change in Glucose (from baseline) [6, 10]: −9.259% and −3.409% and 2.128% and −2.041% and −3.738%; Blood Glucose ([6]; 30 min after single oral dose, label doses mg/kg, listed as Metformin (450)): 98 mg/dL and 85 mg/dL and 96 mg/dL (2×) and 103 mg/dL; Percent Change in Glucose (from baseline) [6, 11]: −15.741% and −12.500% and −5.319% and −16.327% and −18.692%; Blood Glucose ([6]; 45 min after single oral dose, label doses mg/kg, listed as Metformin (450)): 91 mg/dL and 77 mg/dL and 89 mg/dL and 82 mg/dL and 87 mg/dL; Percent Change in Glucose (from baseline) [6, 12]: −25.000% and −15.909% and −10.638% and −14.286% and −22.430%; Blood Glucose ([6]; 60 min after single oral dose, label doses mg/kg, listed as Metformin (450)): 81 mg/dL and 74 mg/dL and 84 mg/dL (2×) and 83 mg/dL; Percent Change in Glucose (from baseline) [6, 13]: −47.222% and −27.273% and −23.404% and −41.837% and −35.514%; Blood Glucose ([6]; 120 min after single oral dose, label doses mg/kg, listed as Metformin (450)): 57 mg/dL (2×) and 64 mg/dL and 72 mg/dL and 69 mg/dL; Percent Change in Glucose (from baseline) [6, 14]: −48.148% and −39.773% and −27.660% and −35.714% and −42.056%; Blood Glucose ([6]; 180 min after single oral dose, label doses mg/kg, listed as Metformin (450)): 56 mg/dL and 53 mg/dL and 68 mg/dL and 63 mg/dL and 62 mg/dL; Percent Change in Glucose (from baseline) [6, 15]: −50.926% and −36.364% and −30.851% and −44.898% and −41.121%; Blood Glucose ([6]; 240 min after single oral dose, label doses mg/kg, listed as Metformin (450)): 56 mg/dL (2×) and 65 mg/dL and 54 mg/dL and 63 mg/dL; Percent Change in Glucose (from baseline) [6, 16]: −35.185% and −34.091% and −27.660% and −58.163% and −29.907%; Blood Glucose ([6]; 300 min after single oral dose, label doses mg/kg, listed as Metformin (450)): 70 mg/dL and 58 mg/dL and 68 mg/dL and 41 mg/dL and 75 mg/dL; reduction of raised plasma insulin levels ([7]; cases of metabolic syndrome): ≤ 30%; lowering of A1c, average ([7]; human, in vivo): 1.5%; lowering of fasting blood glucose levels, average ([7]; human, in vivo): 25%; lowering of postprandial blood glucose ([7]; human, in vivo): up to 44.5%

**Q.** With `CCCNC(=O)NS(=O)(=O)c1ccc(Cl)cc1` [chlorpropamide] as the compound, how does the average weight gain ([2]; UKPDS intensive therapy) read?
**A.** The average weight gain was 2.6 kg.

**Q.** Which duration of activity [8] does the source give for Glargine insulin: long-acting insulin here?
**A.** Its duration of activity is 24 h.

**Q.** What about the peak effect [8] of the same compound?
**A.** Its peak effect is “no peak effect”.
